# Experiments:
# Chromlog D = assay type: physicochemical
# Text: Supplement JBM4-3-na-s005.docx, table 3: Table S3. Solubility and metabolic clearance of selected macrocyclic inhibitors. | column: Chromlog D
# [1] = Microsomal incubations, rLM; assay type: in vitro ADME; settings: rat, liver microsomes, pH 7.4; microsomes 0.5 mg/ml, 0.5 μM compound; read-out: Metabolic clearance rLM
# FOP ECFCs = assay: Osteogenic differentiation (mineralization) of FOP ECFCs; assay type: cell-based, human; settings: osteogenic conditions, Alizarin Red; for Effect on activin A-induced osteogenic differentiation: activin A 50 ng/mL; for Effect on BMP-6-induced osteogenic differentiation: BMP-6 50 ng/mL
# Method: For mineralization assays, 5 × 10^4 ECs were seeded into 48‐well plates and incubated in osteogenic medium containing 10^−8M/L dexamethasone, 0.2mM/L ascorbic acid, and 10mM/L β‐glycerolphosphate in the presence of BMP/ TGF‐β ligands for 28 days. The medium was refreshed every 4 days. Afterwards, cells were washed twice with PBS and fixed with 3.7% formaldehyde for 5 min. Next, cells were washed twice with distilled water; measurement of calcium deposition was performed by Alizarin Red solution (ARS) staining, as previously described.16 Precipitates, originated from three independent ARS assays, were dissolved using 10% cetylpyridinium chloride, and absorbance was measured at 570 nm. Representative pictures were obtained using a Leica DMIL LED microscope (Leica, Wetzlar, Germany) with 10× magnification.
# Cells were incubated for 21 days in chondrogenic medium containing BMP‐6 or activin A (50 ng/mL) and LDN‐193189, OD36, or OD52 at 0.5μM, prior to Alcian Blue staining. (B) Quantification of Fig. 6 A by absorbance, after solubilization with guanidine hydrochloride. (C) Chondrogenic gene expression analysis of collagen 2 (Col2), Sox9, Matrix metalloproteinase 13 (Mmp13), and collagen X (Col X) in ATDC5 cells corresponding to (A). (D) Western blot of a representative clone of FOP endothelial colony‐forming cells (ECFCs) incubated with LDN‐193189, OD36, or OD52 (0.5μM) prior to stimulation with BMP‐6 (50 ng/mL) or activin A (50 ng/mL). (E) Expression of the BMP target genes ID1 and ID3 by qPCR in FOP ECFCs stimulated with BMP‐6 (50 ng/mL) or activin A (50 ng/mL) in the presence of the indicated compounds at 0.5μM. (F) Alizarin Red solution staining on a representative clone of FOP ECFCs incubated under osteogenic conditions with BMP‐6 (50 ng/mL) or activin A (50 ng/mL) and the indicated compounds. (G) Quantification of Fig. 6 F by absorbance, after solubilization with cetylpyridinium. (H) Osteogenic genes Collagen 1 alpha 1 (Col1a1), Runx2, and osterix (Osx) expression in a representative clone of FOP ECFCs incubated under osteogenic conditions with BMP‐6 (50 ng/mL) or activin A (50 ng/mL) and LDN‐193189, OD36, or OD52 (0.5 μM). *p < 0.05, **p < 0.01, ***p < 0.001.
# p-Smad1/5 in 2H11 ECs = assay: Western blot of p-Smad1/5 in 2H11 endothelial cells; assay type: cell-based, mouse; settings: 2H11 cells, compound 0.5μM; for Inhibition of BMP-6-induced p-Smad1/5: BMP-6 50 ng/mL; for Inhibition of BMP-9-induced p-Smad1/5: BMP-9 1 ng/mL
# Method: Compounds were added for 16 hours at 0.5μM before luciferase activity was measured.
# Cells were seeded into 6-well plates and cultured till they reached confluence. Next, cells were stimulated as indicated and then washed with cold PBS. […] Electrophoresis was performed in 10% SDS/polyacrylamide gels. Separated proteins were transferred to nitrocellulose membranes (0.5 A at 100 V; in ice) for 1 hour. Blots were blocked in Tris-Buffered Saline solution containing 0.1% Tween 20 and 5% non-fat dry milk overnight at 4 °C, and immune-detection of specific proteins was carried out with primary antibodies (see above) followed by horseradish peroxidase-conjugated anti-mouse or anti-rabbit (GE Healthcare, Eindhoven, The Netherlands) secondary antibodies using an ECL system (Fisher Scientific, Landsmeer, The Netherlands).
# ACVR2B = biological target: T1, ACVR2B (Homo sapiens, UniProt Q13705); assay: DiscoverX Kd determination; assay type: binding
# T1 construct: T7 phage fusion (or DNA tag for qPCR if made in HEK-293); purchased DiscoverX; host or cells: E. coli (T7 phage) or HEK-293
# T1 sequence (Q13705 19-512): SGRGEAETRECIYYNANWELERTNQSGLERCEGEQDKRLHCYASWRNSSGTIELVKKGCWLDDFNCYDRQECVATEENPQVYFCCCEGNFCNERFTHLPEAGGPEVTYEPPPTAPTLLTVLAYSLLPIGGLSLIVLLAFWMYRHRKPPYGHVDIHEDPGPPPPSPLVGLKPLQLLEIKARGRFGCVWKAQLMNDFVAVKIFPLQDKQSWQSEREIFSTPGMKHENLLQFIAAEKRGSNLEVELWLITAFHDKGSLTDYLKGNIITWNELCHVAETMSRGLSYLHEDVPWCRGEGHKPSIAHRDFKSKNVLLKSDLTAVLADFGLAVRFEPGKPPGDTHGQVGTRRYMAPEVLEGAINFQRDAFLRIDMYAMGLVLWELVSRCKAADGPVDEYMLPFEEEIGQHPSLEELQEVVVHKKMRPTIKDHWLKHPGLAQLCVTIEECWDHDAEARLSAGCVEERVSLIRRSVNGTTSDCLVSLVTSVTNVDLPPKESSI
# Method: (§1) DiscoverX Kd determination: For most assays, kinase-tagged T7 phage strains were prepared in an E. coli host derived from the BL21 strain. E. coli were grown to log-phase and infected with T7 phage and incubated with shaking at 32°C until lysis. The lysates were centrifuged and filtered to remove cell debris. The remaining kinases were produced in HEK-293 cells and subsequently tagged with DNA for qPCR detection. Streptavidin-coated magnetic beads were treated with biotinylated small molecule ligands for 30 minutes at room temperature to generate affinity resins for kinase assays. The liganded beads were blocked with excess biotin and washed with blocking buffer (SeaBlock (Pierce), 1% BSA, 0.05% Tween 20, 1 mM DTT) to remove unbound ligand and to reduce non-specific binding. […] Test compounds were prepared as 111X stocks in 100% DMSO. Kds were determined using an 11-point 3-fold compound dilution series with three DMSO control points. […] The compounds were then diluted directly into the assays such that the final concentration of DMSO was 0.9%. All reactions performed in polypropylene 384-well plate. Each was a final volume of 0.02 ml. […] The kinase concentration in the eluates was measured by qPCR. An 11-point 3-fold serial dilution of each test compound was prepared in 100% DMSO at 100x final test concentration and subsequently diluted to 1x in the assay (final DMSO concentration = 1%). Most Kds were determined using a compound top concentration = 30.000 nM. […] Binding constants (Kds) were calculated with a standard dose-response curve using the Hill equation: Response = Background + Signal – Background 1 + (KdHill Slope / DoseHill Slope). The Hill Slope was set to -1. Curves were fitted using a non-linear least square fit with the Levenberg-Marquardt algorithm.
# ACVR2A = biological target: T2, ACVR2A (Homo sapiens, UniProt P27037); assay: DiscoverX Kd determination; assay type: binding
# T2 construct: T7 phage fusion (or DNA tag for qPCR if made in HEK-293); purchased DiscoverX; host or cells: E. coli (T7 phage) or HEK-293
# T2 sequence (P27037 20-513): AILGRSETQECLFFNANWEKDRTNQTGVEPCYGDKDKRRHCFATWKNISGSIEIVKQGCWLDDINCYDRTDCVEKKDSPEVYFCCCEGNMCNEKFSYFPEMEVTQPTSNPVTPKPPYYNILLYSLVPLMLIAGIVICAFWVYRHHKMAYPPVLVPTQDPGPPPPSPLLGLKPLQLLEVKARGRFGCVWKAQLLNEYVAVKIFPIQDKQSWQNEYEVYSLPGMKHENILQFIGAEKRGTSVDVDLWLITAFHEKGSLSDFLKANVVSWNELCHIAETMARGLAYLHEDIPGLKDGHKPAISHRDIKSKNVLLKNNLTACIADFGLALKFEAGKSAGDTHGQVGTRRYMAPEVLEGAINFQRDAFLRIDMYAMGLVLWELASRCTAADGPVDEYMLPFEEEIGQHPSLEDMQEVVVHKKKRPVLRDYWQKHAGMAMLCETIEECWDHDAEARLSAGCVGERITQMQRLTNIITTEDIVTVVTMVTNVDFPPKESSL
# Method: as §1
# PRKG1 = biological target: T3, PRKG1 (Homo sapiens, UniProt Q13976); assay: Proqinase Kinase profiling; assay type: biochemical; settings: read-out: % inhibition at 100nM
# T3 construct: purchased DiscoverX
# T3 sequence (Q13976 whole entry): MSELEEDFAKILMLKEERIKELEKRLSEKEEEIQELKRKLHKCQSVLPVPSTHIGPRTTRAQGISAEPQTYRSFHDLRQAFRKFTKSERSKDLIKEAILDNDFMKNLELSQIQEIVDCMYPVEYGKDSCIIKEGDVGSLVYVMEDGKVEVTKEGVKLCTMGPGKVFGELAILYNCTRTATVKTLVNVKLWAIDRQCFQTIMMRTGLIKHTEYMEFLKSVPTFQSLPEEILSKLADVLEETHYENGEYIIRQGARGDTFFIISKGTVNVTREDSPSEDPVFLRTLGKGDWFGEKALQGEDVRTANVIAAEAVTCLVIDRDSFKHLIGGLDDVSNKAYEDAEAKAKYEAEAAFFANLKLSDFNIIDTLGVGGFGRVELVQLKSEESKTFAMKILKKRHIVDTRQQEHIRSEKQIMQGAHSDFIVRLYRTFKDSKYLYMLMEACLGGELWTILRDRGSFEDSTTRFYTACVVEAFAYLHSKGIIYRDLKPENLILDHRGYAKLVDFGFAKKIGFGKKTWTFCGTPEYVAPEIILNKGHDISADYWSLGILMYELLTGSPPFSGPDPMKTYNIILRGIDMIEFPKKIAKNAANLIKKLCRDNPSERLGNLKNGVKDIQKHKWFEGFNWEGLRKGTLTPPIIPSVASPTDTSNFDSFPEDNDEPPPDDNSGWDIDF
# MAPKAPK2 = biological target: T4, MAPKAPK2 (Homo sapiens, UniProt P49137); assay: Proqinase Kinase profiling; assay type: biochemical; settings: read-out: % inhibition at 100nM
# T4 construct: purchased DiscoverX
# PAK2 = biological target: T5, PAK2 (Homo sapiens, UniProt Q13177); assay: Proqinase Kinase profiling; assay type: biochemical; settings: read-out: % inhibition at 100nM
# T5 construct: purchased DiscoverX
# T5 sequence (Q13177 whole entry): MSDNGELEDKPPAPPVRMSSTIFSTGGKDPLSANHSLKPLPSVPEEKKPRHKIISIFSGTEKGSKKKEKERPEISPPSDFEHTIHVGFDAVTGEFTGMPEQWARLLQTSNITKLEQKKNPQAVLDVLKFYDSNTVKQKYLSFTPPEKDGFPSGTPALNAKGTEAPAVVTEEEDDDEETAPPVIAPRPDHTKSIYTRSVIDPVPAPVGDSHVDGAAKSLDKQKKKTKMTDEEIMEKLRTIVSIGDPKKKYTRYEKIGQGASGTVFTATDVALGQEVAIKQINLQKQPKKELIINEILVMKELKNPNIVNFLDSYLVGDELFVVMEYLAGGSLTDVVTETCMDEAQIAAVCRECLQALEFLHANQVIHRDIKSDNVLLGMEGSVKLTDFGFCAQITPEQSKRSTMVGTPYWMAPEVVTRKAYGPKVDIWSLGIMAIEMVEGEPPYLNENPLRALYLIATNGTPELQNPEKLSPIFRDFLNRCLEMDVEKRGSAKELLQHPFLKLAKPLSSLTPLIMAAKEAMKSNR
# MYLK3 = biological target: T6, MYLK3 (Homo sapiens, UniProt Q32MK0); assay: Proqinase Kinase profiling; assay type: biochemical; settings: read-out: % inhibition at 100nM
# T6 construct: purchased DiscoverX
# T6 sequence (Q32MK0 whole entry): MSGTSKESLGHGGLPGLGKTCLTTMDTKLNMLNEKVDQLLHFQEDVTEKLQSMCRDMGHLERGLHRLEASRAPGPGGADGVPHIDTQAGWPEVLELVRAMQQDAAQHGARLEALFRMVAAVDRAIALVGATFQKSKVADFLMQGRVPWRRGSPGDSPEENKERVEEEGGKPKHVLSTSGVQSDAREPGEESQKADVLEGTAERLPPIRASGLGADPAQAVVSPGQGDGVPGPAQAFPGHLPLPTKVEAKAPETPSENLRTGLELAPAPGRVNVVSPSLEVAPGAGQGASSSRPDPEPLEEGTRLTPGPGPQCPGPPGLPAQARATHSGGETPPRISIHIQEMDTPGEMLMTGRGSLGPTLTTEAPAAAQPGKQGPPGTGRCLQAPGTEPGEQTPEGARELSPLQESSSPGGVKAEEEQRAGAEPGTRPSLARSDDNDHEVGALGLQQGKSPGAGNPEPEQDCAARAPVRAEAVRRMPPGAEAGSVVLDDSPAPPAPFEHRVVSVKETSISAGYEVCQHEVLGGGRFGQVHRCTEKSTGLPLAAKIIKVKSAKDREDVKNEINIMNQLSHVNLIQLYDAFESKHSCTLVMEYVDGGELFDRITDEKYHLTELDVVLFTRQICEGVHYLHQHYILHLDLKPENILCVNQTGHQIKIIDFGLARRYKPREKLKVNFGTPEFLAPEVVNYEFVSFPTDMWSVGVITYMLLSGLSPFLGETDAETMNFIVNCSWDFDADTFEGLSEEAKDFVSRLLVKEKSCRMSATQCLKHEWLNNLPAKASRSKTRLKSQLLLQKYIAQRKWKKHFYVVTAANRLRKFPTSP
# MAP3K1 = biological target: T7, MAP3K1 (Homo sapiens, UniProt Q13233); assay: Proqinase Kinase profiling; assay type: biochemical; settings: read-out: % inhibition at 100nM
# T7 construct: purchased DiscoverX
# T7 sequence (Q13233 whole entry): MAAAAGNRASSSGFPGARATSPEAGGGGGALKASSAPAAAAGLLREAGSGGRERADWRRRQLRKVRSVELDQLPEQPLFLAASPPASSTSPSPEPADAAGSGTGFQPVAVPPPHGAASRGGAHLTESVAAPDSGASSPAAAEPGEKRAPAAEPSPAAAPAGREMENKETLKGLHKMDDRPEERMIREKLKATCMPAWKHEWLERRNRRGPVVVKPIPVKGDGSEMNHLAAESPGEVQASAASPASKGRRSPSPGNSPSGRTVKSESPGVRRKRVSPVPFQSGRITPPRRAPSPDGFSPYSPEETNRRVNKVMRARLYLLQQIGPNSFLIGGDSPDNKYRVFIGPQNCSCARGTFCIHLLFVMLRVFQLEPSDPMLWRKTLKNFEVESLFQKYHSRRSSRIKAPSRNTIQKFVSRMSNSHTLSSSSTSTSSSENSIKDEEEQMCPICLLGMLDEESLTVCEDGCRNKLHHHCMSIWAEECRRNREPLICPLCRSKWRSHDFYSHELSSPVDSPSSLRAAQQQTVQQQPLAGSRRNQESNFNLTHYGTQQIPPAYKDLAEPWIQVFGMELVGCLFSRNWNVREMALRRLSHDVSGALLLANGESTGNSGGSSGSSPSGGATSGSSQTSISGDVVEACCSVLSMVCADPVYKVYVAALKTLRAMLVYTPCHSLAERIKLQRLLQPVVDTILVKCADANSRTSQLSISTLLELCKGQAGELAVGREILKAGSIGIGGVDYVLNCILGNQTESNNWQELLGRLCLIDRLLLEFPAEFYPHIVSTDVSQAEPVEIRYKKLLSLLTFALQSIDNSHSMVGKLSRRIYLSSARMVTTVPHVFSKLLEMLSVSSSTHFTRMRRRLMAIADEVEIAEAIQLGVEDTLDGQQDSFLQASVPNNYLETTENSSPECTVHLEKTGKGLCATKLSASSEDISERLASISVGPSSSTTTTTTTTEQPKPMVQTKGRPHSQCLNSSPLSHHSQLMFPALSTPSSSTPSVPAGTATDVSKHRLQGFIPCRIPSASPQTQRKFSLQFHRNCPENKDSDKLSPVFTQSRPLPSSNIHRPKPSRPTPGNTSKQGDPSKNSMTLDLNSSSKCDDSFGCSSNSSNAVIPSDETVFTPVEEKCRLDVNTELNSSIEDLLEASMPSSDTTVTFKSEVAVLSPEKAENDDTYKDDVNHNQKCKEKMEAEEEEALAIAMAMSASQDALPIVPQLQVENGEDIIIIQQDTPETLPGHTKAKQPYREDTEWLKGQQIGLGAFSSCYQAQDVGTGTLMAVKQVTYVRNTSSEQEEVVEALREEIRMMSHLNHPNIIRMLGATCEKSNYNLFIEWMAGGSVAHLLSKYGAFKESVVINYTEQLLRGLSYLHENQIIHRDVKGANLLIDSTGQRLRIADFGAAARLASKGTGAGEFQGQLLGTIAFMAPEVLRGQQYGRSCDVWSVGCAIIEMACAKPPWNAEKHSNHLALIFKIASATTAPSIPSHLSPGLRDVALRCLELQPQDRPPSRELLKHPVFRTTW
# CHEK2 = biological target: T8, CHEK2 (Homo sapiens, UniProt O96017); assay: Proqinase Kinase profiling; assay type: biochemical; settings: read-out: % inhibition at 100nM
# T8 construct: purchased DiscoverX
# T8 sequence (O96017 whole entry): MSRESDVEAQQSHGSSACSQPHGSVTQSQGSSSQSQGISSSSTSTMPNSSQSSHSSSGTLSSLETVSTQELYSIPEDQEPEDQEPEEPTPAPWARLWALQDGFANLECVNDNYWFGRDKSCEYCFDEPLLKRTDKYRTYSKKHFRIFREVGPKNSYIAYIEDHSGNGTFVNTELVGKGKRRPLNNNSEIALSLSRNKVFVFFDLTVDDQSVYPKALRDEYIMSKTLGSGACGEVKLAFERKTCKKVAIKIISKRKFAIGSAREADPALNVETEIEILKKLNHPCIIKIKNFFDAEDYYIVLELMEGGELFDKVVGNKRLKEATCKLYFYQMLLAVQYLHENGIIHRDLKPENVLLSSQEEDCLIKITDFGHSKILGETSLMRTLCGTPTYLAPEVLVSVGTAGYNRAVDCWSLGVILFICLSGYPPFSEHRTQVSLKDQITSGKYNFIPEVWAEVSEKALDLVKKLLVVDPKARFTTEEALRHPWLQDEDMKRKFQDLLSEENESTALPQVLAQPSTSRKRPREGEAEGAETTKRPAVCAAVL
SMILES,chromatographic logD (Chromlog D),microsomal CLint at 0.5 μM [1],Effect on activin A-induced osteogenic differentiation (FOP ECFCs),Inhibition of BMP-6-induced p-Smad1/5 (p-Smad1/5 in 2H11 ECs),Inhibition of BMP-9-induced p-Smad1/5 (p-Smad1/5 in 2H11 ECs),Kd (ACVR2B),Kd (ACVR2A),inhibition at 0.1 µM (PRKG1),inhibition at 0.1 µM (MAPKAPK2),inhibition at 0.1 µM (PAK2),Effect on BMP-6-induced osteogenic differentiation (FOP ECFCs),inhibition at 0.1 µM (MYLK3),inhibition at 0.1 µM (MAP3K1),inhibition at 0.1 µM (CHEK2)
"c1ccc2c(-c3cnn4cc(-c5ccc(N6CCNCC6)cc5)cnc34)ccnc2c1 [LDN-193189, reference compound]",2.7,185 µL/min/mg,inhibited,efficiently blocked,efficiently blocked,11 nM,12 nM,–,–,–,–,–,–,–
Clc1cc2cc(c1)-c1cnn3ccc(nc13)NCCOCCO2 [OD36],5.4,74 µL/min/mg,efficiently blocked,only inhibited BMP‐9‐induced p‐Smad1/5,only inhibited BMP‐9‐induced p‐Smad1/5,90 nM,3000 nM,3%,-9%,-5%,modest effect,15%,8%,8%
Cc1cc2cc(c1)-c1cnn3ccc(nc13)NCCNC(=O)CCN(C)C2 [OD52],3.9,32 µL/min/mg,efficiently blocked,only inhibited BMP‐9‐induced p‐Smad1/5,only inhibited BMP‐9‐induced p‐Smad1/5,220 nM,590 nM,-6%,-1%,-7%,modest effect,2%,-14%,-3%
